≈ marks a conversion by molar mass, not a printed value. Starred links: 1 amine or outer side, 2 acyl side, 3 side chain; linkers in the order of their positions; H or OH if unused. Non-standard residues stand in square brackets, D forms with d. Residues, ends and D or L forms follow the SMILES beside them. *: point of attachment. Ethylenediamine = C(CN[*:2])N[*:1]; Lauroyl = CCCCCCCCCCCC(=O)*; Decanoyl = CCCCCCCCCC(=O)*; Hexanoyl = CCCCCC(=O)*
Assays:
Format in all cases: cell-based
[1] = tested on: Staphylococcus aureus ATCC 29213; experiment: MIC, NCCLS M7-A6 broth microdilution, cation-adjusted Mueller Hinton broth (Table 9, no superscript); settings: ATCC 29213
Procedure, shortened: (§1)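 MIC, read as the lowest peptide concentration without visible growth compared with peptide-free wells, after overnight incubation at 37° C. Wells held cation-adjusted Mueller Hinton broth and a final inoculum of 5×10^5 to 1×10^6 CFU/mL from log-phase culture.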

[2] = tested on: Escherichia coli ATCC 25922; experiment: MIC, NCCLS M7-A6 broth microdilution (Table 9, no superscript); settings: ATCC 25922
Procedure, shortened: as §1

[3] = tested on: Pseudomonas aeruginosa ATCC 27853; experiment: as above; settings: ATCC 27853
Procedure, shortened: as §1

Salmonella dublin (Lane) = experiment: as above
Procedure, shortened: as §1

[4] = tested on: Staphylococcus epidermidis ATCC 12228; experiment: as above; settings: ATCC 12228
Procedure, shortened: as §1

[5] = tested on: Propionibacterium acnes ATCC 6919; experiment: MIC, agar dilution method NCCLS M11-A6, Brucella agar, anaerobic (Table 9, superscript c); settings: ATCC 6919
Procedure, shortened: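 MIC taken as the lowest peptide level giving no colonies on the plate. Plates were inoculated to 1.5×10^8 CFU/milliliter, then kept anaerobically at 37° C. for 48-96 hours; method follows NCCLS M11-A6.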

[6] = tested on: Candida albicans ATCC 18804; experiment: MIC in yeasts, NCCLS M27-A2 broth microdilution, RPMI 1640 (Table 9, letter e); settings: ATCC 18804
Procedure, shortened: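 Plates incubated 24 to 48 hours at 37° C, with yeast seeded at 0.5×10^3–2.5×10^3 CFU/milliliter final in RPMI 1640 (glutamine, phenol red indicator). MIC was read as the lowest peptide concentration showing no visible growth.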

MIC S. aureus [1] | MIC E. coli [2] | MIC P. aeruginosa [3] | MIC S. dublin (Salmonella dublin (Lane)) | MIC S. epidermidis [4] | MIC P. acnes [5] | MIC C. albicans [6] | Structure (SMILES)
16 µg/mL (≈ 8.55 µM) | 2 µg/mL (≈ 1.07 µM) | 32 µg/mL (≈ 17.1 µM) | 16 µg/mL (≈ 8.55 µM) | 1 µg/mL (≈ 0.534 µM) | 64c ug/mL | 32e ug/mL | CCCCCC(=O)NCCNC(=O)[C@H](CCCNC(=N)N)NC(=O)[C@H](CC(C)C)NC(=O)[C@H](Cc1ccccc1)NC(=O)[C@H](CC(N)=O)NC(=O)[C@H](CCCNC(=N)N)NC(=O)[C@H](C)NC(=O)[C@@H](NC(=O)[C@H](CC(=O)O)NC(=O)[C@H](CCCNC(=N)N)NC(=O)[C@H](Cc1c[nH]c2ccccc12)NC(=O)[C@H](CCCNC(=N)N)NC(=O)[C@H](CO)NC(=O)[C@@H](N)CCCNC(=N)N)C(C)C [Peptide 168, H2N-RSRWRDVARNFLR-Ethylamidohexanyl] (H-RSRWRDVARNFLR-{Ethylenediamine-Hexanoyl}; C-terminus assumed)
16 µg/mL (≈ 7.86 µM) | 64 µg/mL (≈ 31.5 µM) | >64 µg/mL | 64 µg/mL (≈ 31.5 µM) | 32 µg/mL (≈ 15.7 µM) | >64c ug/mL | 64e ug/mL | CCCCCCCCCCCC(=O)N[C@H](CCCNC(=N)N)C(=O)N[C@H](CO)C(=O)N[C@H](CCCNC(=N)N)C(=O)N[C@H](Cc1c[nH]c2ccccc12)C(=O)N[C@H](CCCNC(=N)N)C(=O)N[C@H](CC(=O)O)C(=O)N[C@@H](C(=O)N[C@H](C)C(=O)N[C@H](CCCNC(=N)N)C(=O)N[C@H](CC(N)=O)C(=O)N[C@H](Cc1ccccc1)C(=O)N[C@H](CCSC)C(=O)N[C@H](CCCNC(=N)N)C(=O)N[C@H](CS)C(N)=O)C(C)C [Peptide 247, Lauryl-rsrwrdvarnfmrc-NH2] (Lauroyl-[dR][dS][dR][dW][dR][dD][dV][dA][dR][dN][dF][dM][dR][dC]-NH2)
16 µg/mL (≈ 8.46 µM) | 8 µg/mL (≈ 4.23 µM) | 16 µg/mL (≈ 8.46 µM) | 32 µg/mL (≈ 16.9 µM) | 2 µg/mL (≈ 1.06 µM) | >64c ug/mL | 64e ug/mL | CCCCCC(=O)NCCNC(=O)[C@H](CCCNC(=N)N)NC(=O)[C@H](CCSC)NC(=O)[C@H](Cc1ccccc1)NC(=O)[C@H](CC(N)=O)NC(=O)[C@H](CCCNC(=N)N)NC(=O)[C@H](C)NC(=O)[C@@H](NC(=O)[C@H](CC(=O)O)NC(=O)[C@H](CCCNC(=N)N)NC(=O)[C@H](Cc1c[nH]c2ccccc12)NC(=O)[C@H](CCCNC(=N)N)NC(=O)[C@H](CO)NC(=O)[C@@H](N)CCCNC(=N)N)C(C)C [Peptide 173, H2N-RSRWRDVARNFMR-Ethylamidohexanyl] (H-RSRWRDVARNFMR-{Ethylenediamine-Hexanoyl}; C-terminus assumed)
4 µg/mL (≈ 2.25 µM) | 16 µg/mL (≈ 9.01 µM) | 64 µg/mL (≈ 36.1 µM) | 16 µg/mL (≈ 9.01 µM) | 8 µg/mL (≈ 4.51 µM) | >64c ug/mL | 16e ug/mL | CCCCCCCCCCCC(=O)N[C@@H](CCCNC(=N)N)C(=O)N[C@@H](CO)C(=O)N[C@@H](CCCNC(=N)N)C(=O)N[C@@H](Cc1c[nH]c2ccccc12)C(=O)N[C@@H](CCCNC(=N)N)C(=O)N[C@@H](CC(=O)O)C(=O)N[C@H](C(=O)N[C@@H](C)C(=O)N[C@@H](CCCNC(=N)N)C(=O)N[C@@H](CC(N)=O)C(=O)N[C@@H](Cc1ccccc1)C(=O)N[C@@H](CCSC)C(N)=O)C(C)C [Peptide 98, Lauryl-RSRWRDVARNFM-NH2] (Lauroyl-RSRWRDVARNFM-NH2)
2 µg/mL (≈ 1.06 µM) | 2 µg/mL (≈ 1.06 µM) | 4 µg/mL (≈ 2.12 µM) | 8 µg/mL (≈ 4.24 µM) | 1 µg/mL (≈ 0.53 µM) | 2c ug/mL | 16e ug/mL | CCCCCCCCCC(=O)N[C@H](CCCNC(=N)N)C(=O)N[C@H](CO)C(=O)N[C@H](CCCNC(=N)N)C(=O)N[C@H](Cc1c[nH]c2ccccc12)C(=O)N[C@H](CCCNC(=N)N)C(=O)N[C@H](CC(=O)O)C(=O)N[C@@H](C(=O)N[C@H](C)C(=O)N[C@H](CCCNC(=N)N)C(=O)N[C@H](CC(N)=O)C(=O)N[C@H](Cc1ccccc1)C(=O)N[C@H](CC(C)C)C(=O)N[C@H](CCCNC(=N)N)C(N)=O)C(C)C [Peptide 253, Decanyl-rsrwrdvarnflr-NH2] (Decanoyl-[dR][dS][dR][dW][dR][dD][dV][dA][dR][dN][dF][dL][dR]-NH2)
2 µg/mL (≈ 1.08 µM) | 4 µg/mL (≈ 2.17 µM) | 16 µg/mL (≈ 8.67 µM) | 4 µg/mL (≈ 2.17 µM) | 2 µg/mL (≈ 1.08 µM) | 16c ug/mL | 16e ug/mL | CCCCCCCCCCCC(=O)N[C@H](CCCNC(=N)N)C(=O)N[C@H](CO)C(=O)N[C@H](CCCNC(=N)N)C(=O)N[C@H](Cc1c[nH]c2ccccc12)C(=O)N[C@H](C)C(=O)N[C@H](CC(=O)O)C(=O)N[C@@H](C(=O)N[C@H](C)C(=O)N[C@H](CCCNC(=N)N)C(=O)N[C@H](CC(N)=O)C(=O)N[C@H](Cc1ccccc1)C(=O)N[C@H](CCSC)C(=O)N[C@H](CCCNC(=N)N)C(N)=O)C(C)C [Peptide 240, Lauryl-rsrwadvarnfmr-NH2] (Lauroyl-[dR][dS][dR][dW][dA][dD][dV][dA][dR][dN][dF][dM][dR]-NH2)

More lines, now with the values behind:

Structure (SMILES) | MIC S. aureus [1] | MIC E. coli [2] | MIC P. aeruginosa [3] | MIC S. dublin (Salmonella dublin (Lane)) | MIC S. epidermidis [4] | MIC P. acnes [5] | MIC C. albicans [6]
CCCCCCCCCCCC(=O)N[C@H](CCCNC(=N)N)C(=O)N[C@H](CO)C(=O)N[C@H](CCCNC(=N)N)C(=O)N[C@H](Cc1c[nH]c2ccccc12)C(=O)N[C@H](CCCNC(=N)N)C(=O)N[C@H](CC(=O)O)C(=O)N[C@@H](C(=O)N[C@H](C)C(=O)N[C@H](CCCNC(=N)N)C(N)=O)C(C)C [Peptide 118, Lauryl-rsrwrdvar-NH2] (Lauroyl-[dR][dS][dR][dW][dR][dD][dV][dA][dR]-NH2) | 8 µg/mL (≈ 5.79 µM) | 64 µg/mL (≈ 46.3 µM) | 32 µg/mL (≈ 23.1 µM) | >64 µg/mL | 8 µg/mL (≈ 5.79 µM) | 16c ug/mL | 32e ug/mL
CCCCCCCCCCCC(=O)N[C@@H](CCCNC(=N)N)C(=O)N[C@@H](CO)C(=O)N[C@@H](CCCNC(=N)N)C(=O)N[C@@H](Cc1c[nH]c2ccccc12)C(=O)N[C@@H](CCCNC(=N)N)C(=O)N[C@@H](CC(=O)O)C(=O)N[C@H](C(=O)N[C@@H](C)C(=O)N[C@@H](CCCNC(=N)N)C(=O)N[C@@H](CC(N)=O)C(=O)N[C@@H](Cc1ccccc1)C(=O)N[C@@H](CCSC)C(=O)N[C@@H](CCCNC(=N)N)C(=O)N[C@@H](Cc1c[nH]c2ccccc12)C(N)=O)C(C)C [Peptide 141, Lauryl-RSRWRDVARNFMRW-NH2] (Lauroyl-RSRWRDVARNFMRW-NH2) | 16 µg/mL (≈ 7.56 µM) | 16 µg/mL (≈ 7.56 µM) | >64 µg/mL | 16 µg/mL (≈ 7.56 µM) | 4 µg/mL (≈ 1.89 µM) | 32c ug/mL | 2e ug/mL
CCCCCCCCCCCC(=O)N[C@H](CCCNC(=N)N)C(=O)N[C@H](CO)C(=O)N[C@H](CCCNC(=N)N)C(=O)N[C@H](Cc1c[nH]c2ccccc12)C(=O)N[C@H](CCCNC(=N)N)C(=O)N[C@H](CC(=O)O)C(=O)N[C@H](CC(C)C)C(=O)N[C@H](CC(C)C)C(=O)N[C@H](CCCNC(=N)N)C(=O)N[C@H](CC(N)=O)C(=O)N[C@H](CC(C)C)C(=O)N[C@H](CCSC)C(=O)N[C@H](CCCNC(=N)N)C(N)=O [Peptide 133, Lauryl-rsrwrdllrnlmr-NH2] (Lauroyl-[dR][dS][dR][dW][dR][dD][dL][dL][dR][dN][dL][dM][dR]-NH2) | 4 µg/mL (≈ 2.05 µM) | 16 µg/mL (≈ 8.19 µM) | 32 µg/mL (≈ 16.4 µM) | 8 µg/mL (≈ 4.1 µM) | 2 µg/mL (≈ 1.02 µM) | 2c ug/mL | 2e ug/mL
CCCCCCCCCCCC(=O)N[C@@H](CCCNC(=N)N)C(=O)N[C@@H](CO)C(=O)N[C@@H](CCCNC(=N)N)C(=O)N[C@@H](Cc1c[nH]c2ccccc12)C(=O)N[C@@H](CCCNC(=N)N)C(=O)N[C@@H](CC(=O)O)C(=O)N[C@@H](Cc1c[nH]c2ccccc12)C(=O)N[C@@H](C)C(=O)N[C@@H](CCCNC(=N)N)C(=O)N[C@@H](CC(N)=O)C(=O)N[C@@H](Cc1ccccc1)C(=O)N[C@@H](CCSC)C(=O)N[C@@H](CCCNC(=N)N)C(N)=O [Peptide 140, Lauryl-RSRWRDWARNFMR-NH2] (Lauroyl-RSRWRDWARNFMR-NH2) | 2 µg/mL (≈ 0.991 µM) | 4 µg/mL (≈ 1.98 µM) | 8 µg/mL (≈ 3.96 µM) | 4 µg/mL (≈ 1.98 µM) | 2 µg/mL (≈ 0.991 µM) | 16c ug/mL | 2e ug/mL
CCCCCCCCCCCC(=O)N[C@@H](CCCNC(=N)N)C(=O)N[C@@H](CO)C(=O)N[C@@H](CCCNC(=N)N)C(=O)N[C@@H](Cc1c[nH]c2ccccc12)C(=O)N[C@@H](CCCNC(=N)N)C(=O)N[C@@H](CC(=O)O)C(=O)N[C@@H](Cc1c[nH]c2ccccc12)C(=O)N[C@@H](C)C(=O)N[C@@H](CCCNC(=N)N)C(=O)N[C@@H](CC(N)=O)C(=O)N[C@@H](Cc1c[nH]c2ccccc12)C(=O)N[C@@H](CCSC)C(=O)N[C@@H](CCCNC(=N)N)C(N)=O [Peptide 143, Lauryl-RSRWRDWARNWMR-NH2] (Lauroyl-RSRWRDWARNWMR-NH2) | 4 µg/mL (≈ 1.94 µM) | 4 µg/mL (≈ 1.94 µM) | 16 µg/mL (≈ 7.78 µM) | 4 µg/mL (≈ 1.94 µM) | 2 µg/mL (≈ 0.972 µM) | 2c ug/mL | 4e ug/mL

From patent US20050282755A1, “Compositions having antimicrobial activity and uses thereof” (priority 2004, published 2005)
